From patent publication USRE47689E1, “Compounds for treating spinal muscular atrophy” (PTC Therapeutics, Inc., priority 2011, dated 2019)
Read-outs that look alike come from different tables or passages of the source.

How the values were obtained:
[1] = tested on: SMN2 minigene (full length SMN2 minigene mRNA containing SMN2 exon 7); assay: SMN2 minigene mRNA splicing RT-qPCR assay in cultured cells; assay type: cell-based, human; conditions: Homo sapiens, HEK293-H, read-out: EC1.5x for production of full length SMN2 mRNA
Procedure, shortened: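 HEK293H cells stably carrying the SMN2-A minigene treated 24 h at 37° C with compound (DMSO, 200× stock), then lysed. Multiplex RT-qPCR (SMN primers 0.4 μM final; 40 cycles) measures full-length exon 7-containing minigene mRNA, normalized to GAPDH and to vehicle; EC1.5x derived and binned by stars.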

Smn protein = Smn protein assay in cultured cells (SMN HTRF); assay type: cell-based, human; conditions: for EC1.5x (concentration giving 1.5-fold Smn protein increase): read-out: EC1.5x for Smn protein expression
Procedure, shortened: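 Lysates in RIPA with protease inhibitors are incubated overnight at room temperature with HTRF anti-SMN antibodies. EC1.5x is derived from fold increase in ΔF over vehicle.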

[2] = HEK293H cells stably transfected with SMN2-A minigene, 24 hours, 7-point concentration curve, 1.5-fold relative to vehicle-treated cells
[3] = SMA Type 1 patient fibroblast cells (GM03813), 48 hours, 7-point concentration curve, SMN HTRF, concentration producing 1.5 times Smn protein vs DMSO vehicle control
[4] = SMA patient fibroblast cells, 48 hours, 7-point concentration data, fold increase relative to vehicle control (SMN HTRF)

SMILES	melting point [°C]	EC (1.5-fold) [1, 2] [µM]	EC1.5x (concentration giving 1.5-fold Smn protein increase) (Smn protein; [3]) [nM]	maximum fold (Fold) increase of Smn protein (Smn protein; [4])	EC (1.5-fold) ([1]; 24 h) [µM]	maximum fold (Fold) increase of Smn protein (Smn protein)	EC1.5x (concentration giving 1.5-fold Smn protein increase) (Smn protein) [nM]
Cc1cn2cc(-c3cc4ccc(N5CCN6CCCCC6C5)cc4oc3=O)nc2cn1 (stereo not drawn) [Compound 635, 3-(6-methylimidazo[1,2-a]pyrazin-2-yl)-7-(octahydro-2H-pyrido[1,2-a]pyrazin-2-yl)-2H-chromen-2-one]	275 to 277	< 0.1	< 300	**** (fold increase between >1.5 and ≤1.65)			
CC(c1ccc2cc(-c3nc4ccccc4s3)c(=O)oc2c1)N(C)C (stereo not drawn) [Cpd 143, 3-(1,3-benzothiazol-2-yl)-7-[1-(dimethylamino)ethyl]-2H-chromen-2-one]	130 to 133	1 to 3		*** (fold increase between >1.35 and ≤1.5)			
Cc1cnc2nc(-c3cc4ccc(N5CCN[C@@H](C)C5)cc4oc3=O)cn2c1 [Compound 462, 3-(6-methylimidazo[1,2-a]pyrimidin-2-yl)-7-[(3S)-3-methylpiperazin-1-yl]-2H-chromen-2-one]	254 to 256	< 0.1	1000 to 3000	*** (fold increase between >1.35 and ≤1.5)			
O=c1oc2cc(N3CCNCC3)ccc2cc1-c1cn2cc(F)cnc2n1 [Compound 502, 3-(6-fluoroimidazo[1,2-a]pyrimidin-2-yl)-7-(piperazin-1-yl)-2H-chromen-2-one]	250 to 261	1 to 3		* (maximum fold increase of ≤1.2)			
Cc1cn2cc(-c3cc4ccc(N5CCN(C)CC5)cc4oc3=O)cc2cn1 [Compound 590, 7-(4-methylpiperazin-1-yl)-3-(3-methylpyrrolo[1,2-a]pyrazin-7-yl)-2H-chromen-2-one]	212 to 214	< 0.1	< 300	***** (fold increase >1.65)			
C[C@H]1CN(c2ccc3cc(-c4cn5cccc(F)c5n4)c(=O)oc3c2)CCN1 [Compound 525, 3-(8-fluoroimidazo[1,2-a]pyridin-2-yl)-7-[(3S)-3-methylpiperazin-1-yl]-2H-chromen-2-one]	190 to 193	0.1 to 0.3		*** (fold increase between >1.35 and ≤1.5)			
CCN1CCN(c2ccc3cc(-c4cn5cc(C)ccc5n4)c(=O)oc3c2)CC1 [Compound 95, 7-(4-ethylpiperazin-1-yl)-3-(6-methylimidazo[1,2-a]pyridin-2-yl)-2H-chromen-2-one]	266 to 269	1 to 3	< 300	**** (fold increase between >1.5 and ≤1.65)			
CCN1CCN(c2cc(F)c3cc(-c4cn5cc(C)nc(C)c5n4)c(=O)oc3c2)CC1 [Compound 746, 3-(6,8-dimethylimidazo[1,2-a]pyrazin-2-yl)-7-(4-ethylpiperazin-1-yl)-5-fluoro-2H-chromen-2-one]	232 to 234	< 0.1	< 300	***** (fold increase >1.65)			
Cc1cn2cc(-c3cc4ccc(N5C[C@@H]6CN(C(C)C)C[C@@H]6C5)cc4oc3=O)nc2c(C)n1 [Compound 743, 3-(6,8-dimethylimidazo[1,2-a]pyrazin-2-yl)-7-[(3aR,6aS)-5-(propan-2-yl)hexahydropyrrolo[3,4-c]pyrrol-2(1H)-yl]-2H-chromen-2-one]	249 to 258	< 0.1	< 300	***** (fold increase >1.65)			
CN1CCCN(c2ccc3cc(-c4cn5cccc(Cl)c5n4)c(=O)oc3c2)CC1 [Compound 280, 3-(8-chloroimidazo[1,2-a]pyridin-2-yl)-7-(4-methyl-1,4-diazepan-1-yl)-2H-chromen-2-one]	161 to 163	0.1 to 0.3		*** (fold increase between >1.35 and ≤1.5)			
CNCCCc1ccc2cc(-c3cc(F)c4nc(C)cn4c3)c(=O)oc2c1 [Compound 913, 3-(8-fluoro-2-methylimidazo[1,2-a]pyridin-6-yl)-7-[3-(methylamino)propyl]-2H-chromen-2-one]	163 to 166	< 0.1	< 300	***** (fold increase >1.65)			
Cc1cc([N+](=O)[O-])c2nc(-c3cc4ccc(N5CCN[C@@H](C)C5)cc4oc3=O)cn2c1 [Compound 703, 3-(6-methyl-8-nitroimidazo[1,2-a]pyridin-2-yl)-7-[(3S)-3-methylpiperazin-1-yl]-2H-chromen-2-one]	251 to 259	1 to 3		** (fold increase between >1.2 and ≤1.35)			
Cc1cn2cc(-c3cc4ccc(N5CC[C@@H](N(C)C)C5)cc4oc3=O)cc2cn1 [Compound 693, 7-[(3R)-3-(dimethylamino)pyrrolidin-1-yl]-3-(3-methylpyrrolo[1,2-a]pyrazin-7-yl)-2H-chromen-2-one]	206 to 208	< 0.1	300 to 1000	**** (fold increase between >1.5 and ≤1.65)			
Cn1cc2cc(-c3cc4ccc(C5CCN(CCO)CC5)cc4oc3=O)ccc2n1 [Compound 861, 7-[1-(2-hydroxyethyl)piperidin-4-yl]-3-(2-methyl-2H-indazol-5-yl)-2H-chromen-2-one]	220 to 226	< 0.1	300 to 1000	***** (fold increase >1.65)			
Cc1cn2cc(-c3cc4ccc(CCN5CCOCC5)cc4oc3=O)nc2c(C)n1 [Compound 886, 3-(6,8-dimethylimidazo[1,2-a]pyrazin-2-yl)-7-[2-(morpholin-4-yl)ethyl]-2H-chromen-2-one]	180 to 184	0.3 to 1	300 to 1000	***** (fold increase >1.65)			
Cc1ccn2nc(-c3cc4ccc(N5CCCNCC5)cc4oc3=O)cc2c1 [Compound 309, 7-(1,4-diazepan-1-yl)-3-(5-methylpyrazolo[1,5-a]pyridin-2-yl)-2H-chromen-2-one]	203 to 206	0.3 to 1		** (fold increase between >1.2 and ≤1.35)			
C[C@H]1CN(c2ccc3cc(-c4ccncc4)c(=O)oc3c2)CCN1 [Compound 549, 7-[(3S)-3-methylpiperazin-1-yl]-3-(pyridin-4-yl)-2H-chromen-2-one]	210 to 213			** (fold increase between >1.2 and ≤1.35)	1 to 3		
Cc1cn2cc(-c3cc4ccc(C5=CCN(CCO)CC5)cc4oc3=O)nc2c(C)n1 [Compound 801, 3-(6,8-dimethylimidazo[1,2-a]pyrazin-2-yl)-7-[1-(2-hydroxyethyl)-1,2,3,6-tetrahydropyridin-4-yl]-2H-chromen-2-one]	172 to 214				< 0.1	**** (key: *: maximum fold increase of ≤1.2; **: fold increase between >1.2 and ≤1.35; ***: fold increase between >1.35 and ≤1.5; ****: fold increase between >1.5 and ≤1.65; *****: fold increase >1.65)	< 300
Cc1cccn2cc(-c3cc4ccc(N5CCCNCC5)cc4oc3=O)nc12 [Compound 281, 7-(1,4-diazepan-1-yl)-3-(8-methylimidazo[1,2-a]pyridin-2-yl)-2H-chromen-2-one]	138 to 140	0.3 to 1		** (fold increase between >1.2 and ≤1.35)			
Cc1ccn2nc(-c3cc4ccc(N5CCCN(C)CC5)cc4oc3=O)cc2c1 [Compound 310, 7-(4-methyl-1,4-diazepan-1-yl)-3-(5-methylpyrazolo[1,5-a]pyridin-2-yl)-2H-chromen-2-one]	175 to 177	0.3 to 1		** (fold increase between >1.2 and ≤1.35)			
Cc1cn2cc(-c3cc4ccc(O[C@@H]5CCNC5)cc4oc3=O)nc2s1.Cl.Cl [Compound 325, 3-(2-methylimidazo[2,1-b][1,3]thiazol-6-yl)-7-[(3R)-pyrrolidin-3-yloxy]-2H-chromen-2-one hydrochloride (1:2)]	230 to 235	0.3 to 1		* (maximum fold increase of ≤1.2)			
Cc1cn2cc(-c3cc4ccc(C5CCN(C)CC5)cc4oc3=O)ccc2n1 [Compound 826, 3-(2-methylimidazo[1,2-a]pyridin-6-yl)-7-(1-methylpiperidin-4-yl)-2H-chromen-2-one]	204 to 206	< 0.1	< 300	***** (fold increase >1.65)			
O=c1oc2cc(N3CCNCC3)ccc2cc1-c1cccc(F)n1 [Compound 380, 3-(6-fluoropyridin-2-yl)-7-(piperazin-1-yl)-2H-chromen-2-one]	196 to 198			** (fold increase between >1.2 and ≤1.35)	0.3 to 1		
